Each block holds one molecule with its values, some of them ahead of it.
Experiments:
[1] = system: Sprague-Dawley rats; assay: Maximal Electroshock Assay (Rat); format: in vivo; settings: rat MES, 0.5 h and 4 h pretreatment timepoints
Method: Male, Sprague-Dawley rats (approx. 100 g body weight) were prescreened for tonic seizure susceptibility prior to drug testing. […] Protection was defined by the absence of a tonic extensor seizure in the animal within 20 s of application of the electrical stimulus, which typically occurred in all vehicle pretreated animals. Animals received only one electroshock on the drug test day and so separate animals were used for the 0.5 h and 4 h timepoints. All drugs were administered in multiple doses.

[2] = system: CD-1 mice; assay: Maximal Electroshock Assay (Mouse); format: in vivo; settings: mouse MES, 1 h and 4 h pretreatment timepoints
Method: Male, CD-1 mice (20-30 g body weight) were orally pretreated with test compound or vehicle control, and either at 1 h or 4 h post dose a maximal electroshock (45 mA amplitude, 0.2 s duration, 60 Hz) was applied by corneal electrodes. […] Animals received only one electroshock and so separate animals were used for the 1 h and 4 h timepoints. All drugs were administered in multiple doses.

[3] = system: SNI rats; assay: Spared nerve injury (SNI) model, mechanical allodynia; format: in vivo, rat; settings: 30 mg/kg, i.p.
Method: The compounds were tested for their efficacy in reducing mechanical allodynia and cold allodynia in the spared nerve injury (SNI) model of chronic neuropathic pain. In this model, the left sciatic nerve of the rat is exposed under anesthesia. Two of the branches of the sciatic nerve viz. the common peroneal and tibial nerve are ligated and sectioned. The third branch (sural nerve) is left intact. The animals were allowed a post-operative recovery period of 7 days before they were subjected to any test.
The presence of mechanical allodynia was assessed using the Dynamic Plantar Aesthesiometer (Ugo Basile, Italy) which is a modified version of the Von Frey Hair test. In this, a test filament is positioned below the animal's hind paw and the unit is activated which causes the filament to move up and touch the plantar surface of the hind paw. Increasing force is applied to the paw via the filament. […] The cut-off force is set at 50 g. The tests were done on both the non-injured (control) and the injured (SNI) paw.
Testing of compounds was done after 21 days post-operatively. After initial basal readings were taken, the test compound or the vehicle was administered (10 ml/kg) either intraperitoneally (30 mg/kg) or orally (60 mg/kg). The readings were taken again 30, 60 and 180 min after the compound/vehicle administration.

melting point: 162.7 °C
SMILES: CC(=O)N[C@H](COC(F)F)C(=O)NCc1ccc(F)cc1

SMILES: CC(=O)NC(COC(F)F)C(=O)NCc1ccccc1 (centres unmarked) [Compound 3, 2-(Acetylamino)-N-benzyl-3-(difluoro-methoxy)propanamide]
duration of action [1]: longer than Lacosamide
duration of action [2]: longer than Lacosamide

SMILES: CC(=O)NC(COC(F)F)C(=O)NCc1ccc(F)cc1 (centres unmarked) [Compound 4]
duration of action [1]: longer than Lacosamide
duration of action [2]: longer than Lacosamide

SMILES: CC(=O)N[C@H](COC(F)F)C(=O)NCc1ccc(Cl)cc1 [Compound 20, (2R)-2-(acetylamino)-N-(4-chlorobenzyl)-3-(difluoromethoxy)propanamide]
withdrawal threshold, Post Admin 60 min [3]: 25.3 ± 3.2 g
duration of action [1]: longer than Lacosamide
duration of action [2]: longer than Lacosamide

Source: patent US7902401B2, “Fluorinated compounds” (priority 2006, dated 2011)
